From the supplement of paper PMC10307832

What was measured:
Experiment in all cases: relative viability (nuclei count vs DMSO), 5 days (fraction); higher = more cells survive
[1] = tested on: 201T
How it was run: (§1)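 A single step with final 0.05% Triton X-100, 1% formaldehyde and 1 ug/ml Hoechst fixed the cells and stained nuclei 5 days after treatment. Lung cancer cell lines in 1536-well plates had been treated by pin tool the day after seeding with one drug alone or a fixed anchor-drug dose plus five library-drug doses (not always all listed) in √10 steps, and nuclei were counted on 4× images. Relative viability is the ratio of nuclei in treated wells to nuclei in vehicle wells, taken as the median of duplicate plates.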

[2] = tested on: BEN
How it was run: as §1

[3] = tested on: HCC-366
How it was run: as §1

[4] = tested on: HCC-44
How it was run: as §1

[5] = tested on: HCC-78
How it was run: as §1

[6] = tested on: LOU-NH91
How it was run: as §1

[7] = tested on: LU99A
How it was run: as §1

[8] = tested on: NCI-H1355
How it was run: as §1

[9] = tested on: NCI-H1395
How it was run: as §1

[10] = tested on: NCI-H1734
How it was run: as §1

[11] = tested on: NCI-H1975
How it was run: as §1

[12] = tested on: NCI-H2085
How it was run: as §1

[13] = tested on: NCI-H2087
How it was run: as §1

[14] = tested on: NCI-H2126
How it was run: as §1

[15] = tested on: NCI-H2228
How it was run: as §1

[16] = tested on: NCI-H322M
How it was run: as §1

[17] = tested on: NCI-H358
How it was run: as §1

[18] = tested on: NCI-H647
How it was run: as §1

[19] = tested on: NCI-H727
How it was run: as §1

[20] = tested on: PC-14
How it was run: as §1

[21] = tested on: SK-LU-1
How it was run: as §1

[22] = tested on: SK-MES-1
How it was run: as §1

[23] = tested on: UMC-11
How it was run: as §1

C=C1C(=O)O[C@@H](CCCCCCCC)[C@@H]1C(=O)O [C-75] + O=C(CCCCCCC(=O)Nc1ccccc1)NO [Vorinostat] (partner 1 µM)
relative viability ([1]; first compound 0.08 µM): 0.976 | relative viability ([1]; first compound 0.253 µM): 1.31 | relative viability ([1]; first compound 0.8 µM): 0.91 | relative viability ([1]; first compound 2.53 µM): 0.936 | relative viability ([1]; first compound 8 µM): 0.979 | relative viability ([2]; first compound 0.08 µM): 0.642 | relative viability ([2]; first compound 0.253 µM): 0.574 | relative viability ([2]; first compound 0.8 µM): 0.524 | relative viability ([2]; first compound 2.53 µM): 0.647 | relative viability ([2]; first compound 8 µM): 0.606 | relative viability ([3]; first compound 0.08 µM): 0.409 | relative viability ([3]; first compound 0.253 µM): 0.399 | relative viability ([3]; first compound 0.8 µM): 0.256 | relative viability ([3]; first compound 2.53 µM): 0.269 | relative viability ([3]; first compound 8 µM): 0.301 | relative viability ([4]; first compound 0.08 µM): 1.1 | relative viability ([4]; first compound 0.253 µM): 0.994 | relative viability ([4]; first compound 0.8 µM): 1.07 | relative viability ([4]; first compound 2.53 µM): 1.13 | relative viability ([4]; first compound 8 µM): 1.07 | relative viability ([5]; first compound 0.08 µM): 0.372 | relative viability ([5]; first compound 0.253 µM): 0.668 | relative viability ([5]; first compound 0.8 µM): 0.373 | relative viability ([5]; first compound 8 µM): 0.372 | relative viability ([6]; first compound 0.08 µM): 0.939 | relative viability ([6]; first compound 0.253 µM): 0.939 | relative viability ([6]; first compound 0.8 µM): 0.828 | relative viability ([6]; first compound 8 µM): 0.898 | relative viability ([7]; first compound 0.08 µM): 0.476 | relative viability ([7]; first compound 0.253 µM): 0.549 | relative viability ([7]; first compound 0.8 µM): 0.413 | relative viability ([7]; first compound 2.53 µM): 0.552 | relative viability ([7]; first compound 8 µM): 0.495 | relative viability ([8]; first compound 0.08 µM): 0.643 | relative viability ([8]; first compound 0.253 µM): 0.696 | relative viability ([8]; first compound 0.8 µM): 0.67 | relative viability ([8]; first compound 2.53 µM): 0.52 | relative viability ([8]; first compound 8 µM): 0.639 | relative viability ([9]; first compound 0.08 µM): 0.649 | relative viability ([9]; first compound 0.253 µM): 0.768 | relative viability ([9]; first compound 2.53 µM): 0.634 | relative viability ([9]; first compound 8 µM): 0.711 | relative viability ([10]; first compound 0.08 µM): 0.834 | relative viability ([10]; first compound 0.253 µM): 0.877 | relative viability ([10]; first compound 0.8 µM): 0.766 | relative viability ([10]; first compound 2.53 µM): 0.538 | relative viability ([10]; first compound 8 µM): 0.693 | relative viability ([11]; first compound 0.08 µM): 0.757 | relative viability ([11]; first compound 0.253 µM): 0.733 | relative viability ([11]; first compound 0.8 µM): 0.761 | relative viability ([11]; first compound 2.53 µM): 0.718 | relative viability ([11]; first compound 8 µM): 0.742 | relative viability ([12]; first compound 0.08 µM): 0.801 | relative viability ([12]; first compound 0.253 µM): 0.749 | relative viability ([12]; first compound 0.8 µM): 0.752 | relative viability ([12]; first compound 2.53 µM): 0.664 | relative viability ([12]; first compound 8 µM): 0.738 | relative viability ([13]; first compound 0.08 µM): 0.683 | relative viability ([13]; first compound 0.253 µM): 0.586 | relative viability ([13]; first compound 0.8 µM): 0.666 | relative viability ([13]; first compound 2.53 µM): 0.635 | relative viability ([13]; first compound 8 µM): 0.541 | relative viability ([14]; first compound 0.08 µM): 0.721 | relative viability ([14]; first compound 0.253 µM): 0.92 | relative viability ([14]; first compound 0.8 µM): 0.792 | relative viability ([14]; first compound 2.53 µM): 0.642 | relative viability ([14]; first compound 8 µM): 0.744 | relative viability ([15]; first compound 0.08 µM): 0.617 | relative viability ([15]; first compound 0.253 µM): 0.681 | relative viability ([15]; first compound 0.8 µM): 0.661 | relative viability ([15]; first compound 2.53 µM): 0.67 | relative viability ([15]; first compound 8 µM): 0.562 | relative viability ([16]; first compound 0.08 µM): 0.859 | relative viability ([16]; first compound 0.253 µM): 1.32 | relative viability ([16]; first compound 0.8 µM): 0.851 | relative viability ([16]; first compound 8 µM): 0.847 | relative viability ([17]; first compound 0.08 µM): 0.704 | relative viability ([17]; first compound 0.253 µM): 0.789 | relative viability ([17]; first compound 0.8 µM): 0.689 | relative viability ([17]; first compound 8 µM): 0.608 | relative viability ([18]; first compound 0.08 µM): 0.47 | relative viability ([18]; first compound 0.253 µM): 0.873 | relative viability ([18]; first compound 0.8 µM): 0.638 | relative viability ([18]; first compound 2.53 µM): 0.464 | relative viability ([18]; first compound 8 µM): 0.486 | relative viability ([19]; first compound 0.08 µM): 1.22 | relative viability ([19]; first compound 0.253 µM): 1.31 | relative viability ([19]; first compound 0.8 µM): 0.973 | relative viability ([19]; first compound 2.53 µM): 1.18 | relative viability ([19]; first compound 8 µM): 1.23 | relative viability ([20]; first compound 0.08 µM): 0.721 | relative viability ([20]; first compound 0.253 µM): 0.741 | relative viability ([20]; first compound 0.8 µM): 0.63 | relative viability ([20]; first compound 2.53 µM): 0.61 | relative viability ([20]; first compound 8 µM): 0.717 | relative viability ([21]; first compound 0.08 µM): 0.782 | relative viability ([21]; first compound 0.253 µM): 0.724 | relative viability ([21]; first compound 0.8 µM): 0.698 | relative viability ([21]; first compound 2.53 µM): 0.752 | relative viability ([21]; first compound 8 µM): 0.59 | relative viability ([22]; first compound 0.08 µM): 1.08 | relative viability ([22]; first compound 0.253 µM): 1.12 | relative viability ([22]; first compound 0.8 µM): 1.06 | relative viability ([22]; first compound 2.53 µM): 1.04 | relative viability ([22]; first compound 8 µM): 1.1 | relative viability ([23]; first compound 0.08 µM): 0.38 | relative viability ([23]; first compound 0.253 µM): 0.497 | relative viability ([23]; first compound 0.8 µM): 0.343 | relative viability ([23]; first compound 2.53 µM): 0.257 | relative viability ([23]; first compound 8 µM): 0.294
